pEC50: −log10 of the molar value. Where a name gives a salt, the structure may show the parent alone. Read-outs that look alike come from different tables or passages of the source.
What was measured:
[1] = literature / prior patents; cited from earlier work
[2] = tested on: neuronal uptake of noradrenaline; assay: Inhibition of uptake of 3H-NA in vitro in slices of mouse midbrain; assay type: cell-based; conditions: in words; in vitro or in vivo not stated
Description: (§1) It is not possible by experimental means to induce depressions in laboratory animals. In order to evaluate a possible anti-depressive effect of new substances biochemicalpharmacological test methods must be resorted to. One such method, which seems to give a good indication of the potential anti-depressive effects of the test substances, is described in Europ.
(§2) The test substances were administered intraperitoneally half an hour before the animals were killed. […] The incubation time was 5 minutes with 5 minutes of preincubation before the labelled amines were added. The slices were dissolved in Soluene® and the amounts of radio-active amines taken up were determined by liquid scintillation. […] Active uptake is defined as that part of the radioactive uptake which is inhibited by a high concentration of cocaine.
(§3) In the in vitro method, slices of mouse midbrain were preincubated for 5 minutes with a solution of the compound to be tested and then incubated as described above.

[3] = tested on: neuronal uptake of noradrenaline; assay: Inhibition of uptake of 3H-NA in brain slices after in vivo (i.p.) administration; parameters: species or system mouse
Description: as §1, §2

[4] = tested on: neuronal uptake of 5-hydroxytryptamine; assay: Inhibition of uptake of 14C-5-HT in vitro in slices of mouse midbrain; assay type: cell-based
Description: as §1, §2, §3

[5] = tested on: neuronal uptake of 5-hydroxytryptamine; assay: Inhibition of uptake of 14C-5-HT in brain slices after in vivo (i.p.) administration; parameters: species or system mouse; conditions: in words
Description: as §1, §2

[6] = cited from earlier work

**Q.** With `CN(C)CC=C(c1ccccc1)c1ccccc1` as the compound, how does the antidepressive effect [1] read?
**A.** Its antidepressive effect is “have an antidepressive effect”.

**Q.** For `CNC/C=C(\c1ccc(Br)cc1)c1cccnc1` [E-form of the compound of the invention, (E)-3-(4-bromophenyl)-3-(3-pyridyl)-N-methyl-allylamine], which “preferential inhibition of noradrenaline uptake” value [2] is on record?
**A.** The value was “primarily inhibits the uptake of noradrenaline”.

**Q.** With `CNC/C=C(/c1ccc(Br)cc1)c1cccnc1` [H Z hydrochloride, (Z)-3-(4-bromophenyl)-3-(3-pyridyl)-N-methyl-allylamine] as the compound, how does the inhibition at 101 µmol/kg ([3]; Mus musculus, ip, at the dose 101 μmole/kg i.p.) read?
**A.** Its inhibition at 101 µmol/kg is 39%.

**Q.** And the “Uptake of 3H-NA in vivo ED50” value ([3]; i.p., half an hour before killing, mouse midbrain slices, dose for 50 percent decrease of active uptake, 30 min)?
**A.** The value was > 101 µmol/kg.

**Q.** Which ED50 ([3]; Mus musculus, ip, 0.5 h, i.p., half an hour before killing, mouse midbrain slices, dose for 50 percent decrease of active uptake) does the source give for `CNC/C=C(/c1ccc(Br)cc1)c1cccnc1` [H Z oxalate, (Z)-3-(4-bromophenyl)-3-(3-pyridyl)-N-methyl-allylamine] here?
**A.** The ED50 was 102 µmol/kg.

**Q.** With `CNCC=C(c1ccc(Br)cc1)c1cccnc1` [H mixture oxalate, N-methyl-3-(4-bromophenyl)-3-(3-pyridyl)allylamine oxalate] as the compound, how does the pEC50 ([4]; Mus musculus, mouse midbrain slices, 5 min preincubation, 5 min incubation) read?
**A.** The pEC50 was 6.30.

**Q.** Which “inhibition of the uptake of 5-HT in vivo, compared with prior art compounds” value [5] does the source give for `CNC/C=C(/c1ccc(Br)cc1)c1cccnc1` [Z-form of the compound of the invention, (Z)-3-(4-bromophenyl)-3-(3-pyridyl)-N-methyl-allylamine] here?
**A.** The value was “stronger inhibition of the uptake of 5-HT in vivo than do any of the prior art compounds tested”.

**Q.** And the “inhibition of the uptake of 5-HT in vitro, compared with prior art compounds” value ([4]; in words, tested as the hydrochloride)?
**A.** Its value is “more potent inhibitor of the uptake of 5-HT in vitro than any of the prior art compounds”.

**Q.** What does the source list for `CN(C)CCC=C1c2ccccc2CCc2ccccc21` [amitriptyline]?
**A.** side effects ([6]; in vivo): orthostatism, anticholinergic effects and above all, an arrhythmogenic i.e. heart arrhythmia developing effect; start of the antidepressive effect ([6]; therapeutic use): does not start until some weeks after treatment

**Q.** With `CNCCCN1c2ccccc2CCc2ccccc21` [desipramine] as the compound, how does the side effects ([6]; in vivo) read?
**A.** Its side effects is “orthostatism, anticholinergic effects and above all, an arrhythmogenic i.e. heart arrhythmia developing effect”.

**Q.** And the “start of the antidepressive effect” value ([6]; therapeutic use)?
**A.** The value was “does not start until some weeks after treatment”.

**Q.** Which side effects ([6]; in vivo) does the source give for `CN(C)CCCN1c2ccccc2CCc2ccccc21` [imipramine] here?
**A.** The side effects was “orthostatism, anticholinergic effects and above all, an arrhythmogenic i.e. heart arrhythmia developing effect”.

**Q.** What about the “start of the antidepressive effect” value ([6]; therapeutic use) of the same compound?
**A.** The value was “does not start until some weeks after treatment”.

**Q.** Which side effects ([6]; therapeutic use, arrhythmogenic in large doses to old patients) does the source give for `CNCCC=C1c2ccccc2CCc2ccccc21` [nortriptyline] here?
**A.** The side effects was “orthostatism, anticholinergic effects and above all, an arrhythmogenic i.e. heart arrhythmia developing effect”.

**Q.** What about the “start of the antidepressive effect” value ([6]; therapeutic use) of the same compound?
**A.** Its value is “does not start until some weeks after treatment”.
